Experimental data: EP0022634A1, “Acylated indole derivatives, processes for their preparation and pharmaceutical compositions and drugs comprising them” (TEIJIN LIMITED, priority 1979, dated 1981)
In brackets after ≈: the same amount, converted by molar mass.

How the values were obtained:
[1] = test system: mucous membrane of the stomach; assay: Action of causing trouble to the mucous membrane of the stomach (ulcer index); assay type: in vivo, Male S.D. rats; conditions: for Incidence / Ulcer Index (mm ± S.E.): fasted rats
Description: Male S.D. rats (7 weeks old) were caused to fact for 24 hours while allowing them to drink water freely. A test compound dissolved in propylene glycol was orally administered to these rats, and these rats were kept while causing them to fast. Then, the rats were knocked out to death, and lesions generated in the stomach were measured in the following manner.
Ten minutes before killing the rats, 1% Evans blue was intravenously injected to the rats in a dose of 0.5 ml/rat to stain their body. Then, the rats were knocked out to death, and the stomack was taken out from each rat. 12 ml of 1% formalin was injected into the stomack to inflate it. The stomach was then dipped for more than 10 minutes in a 1% formalin solution, and fixed. After fixing, the stomach was incised along the glandular portion, and the length of a dye-leaked portion that occurred in the stomach was measured under a solid microscope, and defined as the ulcer index (mm).
For details of the test on the action of causing trouble to the mucous membrane of the stomach, see E. Adami, E. Marazzi-Uberti, and C. Turba, Arch, int. Pharmacadyn., 147, 113 (1964).

[2] = test system: platelet aggregation; assay: in vitro platelet aggregation inhibiting activity (sodium arachidonate as aggregating agent); assay type: cell-based; conditions: Cavia porcellus, Platelet, guinea pigs PRP, final concentration 0.1 millimole, minimum final concentration whose inhibiting rate exceeded 50 %, read-out: IC50
Description: The platelet aggregation inhibiting activities in vitro of test drugs including the acylated indole derivatives of this invention were assayed using guinea pigs PRP.
As an aggregating agent, sodium arachidonate having a final concentration of 0.1 millimole was used.
The citrated blood was centrifuged at 1000 rpm for 10 minutes at room temperature, and the supernatant liquid (PRP) was separated.
The resulting PRP was stored at room temperature, and used as early as possible. PRP stored for more than 4 hours was not used.
A compound having a free carboxylic acid as a residue, such as Indomethacin and Ibprofen, was dissolved in O.lM NaHC03 to provide a sodium salt solution having a concentration of 10 mg/ml. The solution was similarly diluted with physiological saline to prepare a solution of a test drug.
The solution was diluted with physiological saline to form a 1mM solution which was used in the test.
50 µℓ of physiological saline and 50 µℓ of the aggregating agent solution were added to 400 µℓ of PRP which had been warmed in a cuvette at 37°C in an aggregometer to aggregate the platelet. The aggregation curve was recorded for 3 minutes by an aggregometer (a product of Bryston Company). The maximum degree of aggregation in this platelet aggregation was defined as the maximum degree of aggregation in the blank.
Then, 50 µℓ of a 1mM solution of sodium arachidonate was added, and the platelet aggregation curve was recorded in the same way as in (1) above. From the curve, the maximum degree of aggregation was calculated, and the inhibiting rate was calculated in accordance with the following equation. Maximum degree of aggregation Inhibiting 100 - in the Ibprofen-added system 100 rate (%) Maximum degree of aggregation in the blank
If these inhibiting rates are not attained, the concentration of the solution of sodium arachidonate is not suitable, and therefore, its concentration should be re-adjusted, and the test shall be performed again.
50 µℓ of the test compound solution was added to 400 µℓ of PRP, and the mixture was pre-incubated in the same way as in(2) above. Then, 50 µℓ of the solution of sodium arachidonate having its concentration adjusted in (2) was added, and the aggregation curve was recorded for 3 minutes. The maximum degree of aggregation of platelet within this period was measured, and the rate of inhibition was calculated from the following equation. […] Maximum degree of aggregation Inhibiting _ 100 - in the drug-added system x 100 rate (%) Maximum degree of aggregation in the blank
For details of the in vitro platelet aggregation inhibiting test, see H. M. Davis, J. Phyllis, K. Paul and W. Terry: Thromb. […] Haemos.

[3] = test system: platelet aggregation; assay: extra vivo platelet aggregation inhibiting activity after oral administration, sodium arachidonate as aggregating agent; assay type: in vivo, guinea pigs; conditions: Cavia porcellus, 0.03 mM sodium arachidonate; for inhibition at 10 mg/kg: oral dosage 10 mg/kg; for inhibition at 1 mg/kg: oral dosage 1 mg/kg
Description: (§1) The platelet aggregation inhibiting activities extra vivo of drugs sampled at random were examined using guinea pigs.
(§2) The drugs were used dissolved in propylene glycol to a concentration of 1 mg/ml (when the dosage was 1 mg/kg), 10 mg/ml (when the dosage was 10 mg/kg), and 30 mg/ml (when the dosage was 30 mg/kg). The drugs were administered orally to male Hartley guinea pigs (three in a group) having a body weight of 300 to 350 g. Propylene glycol was administered to a control group.
(§3) One hour, or 4 hours after the administration, citrated blood was taken out from the subject by cardiac puncture.
(§4) The guinea pigs were caused to fast overnight before use.
(§5) The inhibiting rate of the test drugs was measured as follows: • 450 µℓ of PRP was put into a cuvette of an aggregometer, and then 50 µℓ of the aggregating agent was added. The aggregation curve was recorded for 3 minutes, and the maximum degree of aggregation was measured. As a blank, the maximum degree of aggregation of PRP of the group of guinea pigs to which propylene glycol had been administered was measured. The rate of inhibition was calculated from the following equation. [formula]
(§6) As the aggregating agent, 0.03 mM (final concentration sodium arachidonate and 5 µg/ml (final concentration) collagen floating solution were used.
For details of the extra vivo platelet aggregation inhibiting test, see Davis. H. M., Phyllis, J., Paul, K and Terry, W.: Thromb. […] Haemos.

[4] = test system: platelet aggregation; assay: extra vivo platelet aggregation inhibiting activity after oral administration, collagen as aggregating agent; assay type: in vivo, guinea pigs; conditions: Cavia porcellus, po
Description: The collagent floating solution made by Hormone Company of west Germany was diluted with physiological saline to a concentration of 100 µg/ml for use in the test.
as §1, §2, §3, §4, §5, §6
For details of the extra vivo platelet aggregation inhibiting test, see Davis. H. M., Phyllis, J., Paul, K and Terry, W.: Thromb. Res. 11, 217-226 (1977) and Anderson R. E. and Foulks J. G.: Thromb. Haemos. 36, 343-359 (1976).

[5] = test system: platelet aggregation; assay: in vitro platelet aggregation inhibiting activity (sodium arachidonate as aggregating agent); assay type: cell-based, guinea pigs; conditions: general statement on investigations of the present inventors; test not specified
[6] = oral dosage 400 mg/kg in propylene glycol
[7] = oral dosage 100 mg/kg in propylene glycol
[8] = oral dosage 200 mg/kg in propylene glycol
[9] = blood taken 1 hour after administration, read-out: Rate of inhibition of platelet aggregation, Sodium arachidonate, After 1 hour
[10] = blood taken 4 hours after administration, read-out: Rate of inhibition of platelet aggregation, Sodium arachidonate, After 4 hours
[11] = 1 h, read-out: Rate of inhibition of platelet aggregation, Collagen, After 1 hour
[12] = 4 h, read-out: Rate of inhibition of platelet aggregation, Collagen, After 4 hours

CCCCCC(C)n1c(C)c(C(=O)c2ccccc2)c2ccccc21 (stereo not drawn) [(706), 3-Benzoyl-l-(2-heptyl)-2-methylindole]
Incidence [1, 6]: 16.7%
Ulcer Index (mm ± S.E.) [1, 6]: 0.1 mm

CC(C)c1[nH]c2ccccc2c1C(=O)c1cccnc1 [Comparison 3, reference compound]
Incidence [1, 7]: 66.7%
Ulcer Index (mm ± S.E.) [1, 7]: 1.5 ± 0.6 mm
Incidence [1, 6]: 100%
Ulcer Index (mm ± S.E.) [1, 6]: 7.9 ± 2.3 mm
IC50 [2]: 0.075 µg/mL (≈ 0.284 µM)

CCOCC(C)n1c(C)c(C(=O)c2ccccc2)c2ccccc21 (centres unmarked) [(302), 3-Benzoyl-1-(1-ethoxy-2-propyl)-2-methylindole]
Incidence [1, 8]: 33.3%
Ulcer Index (mm ± S.E.) [1, 8]: 0.3 ± 0.2 mm
Incidence [1, 6]: 50%
Ulcer Index (mm ± S.E.) [1, 6]: 0.9 ± 0.3 mm
inhibition at 10 mg/kg [3, 9]: 100%
inhibition at 10 mg/kg [3, 10]: 100%
IC50 [2]: 0.055 µg/mL (≈ 0.171 µM)

COCC(C)n1c(C)c(C(=O)c2ccccc2)c2ccccc21 (centres unmarked) [(300), 3-Benzoyl-1-(1-methoxy-2-propyl)-2-methylindole]
Incidence [1, 7]: 40%
Ulcer Index (mm ± S.E.) [1, 7]: 1.1 ± 0.5 mm
Incidence [1, 8]: 55.6%
Ulcer Index (mm ± S.E.) [1, 8]: 1.2 ± 0.3 mm
Incidence [1, 6]: 66.7%
Ulcer Index (mm ± S.E.) [1, 6]: 1.4 ± 0.5 mm
inhibition at 1 mg/kg [3, 9]: 51.3%
inhibition at 1 mg/kg [3, 10]: 67.5%
IC50 [2]: 0.055 µg/mL (≈ 0.179 µM)
inhibition at 1 mg/kg [4, 11]: 100%
inhibition at 1 mg/kg [4, 12]: 71.4%

CC(=O)C(C)n1c(C)c(C(=O)c2ccccc2)c2ccccc21 (stereo not drawn) [(800), 3-Benzoyl-2-methyl-l-(3-oxo-2-butyl)indole]
inhibition at 10 mg/kg [3, 9]: 100%
inhibition at 10 mg/kg [3, 10]: 66.7%
IC50 [2]: 0.05 to 0.1 µg/mL (≈ 0.164 to 0.327 µM)
inhibition at 10 mg/kg [4, 11]: 100%
inhibition at 10 mg/kg [4, 12]: 48.4%

CCSCC(C)n1c(C)c(C(=O)c2ccccc2)c2ccccc21 (centres unmarked) [(400), 3-Benzoyl-1-(1-ethylthio-2-propyl)-2-methylindole]
inhibition at 10 mg/kg [3, 9]: 100%
inhibition at 10 mg/kg [3, 10]: 67.4%
IC50 [2]: 0.5 µg/mL (≈ 1.48 µM)
inhibition at 10 mg/kg [4, 11]: 100%
inhibition at 10 mg/kg [4, 12]: 100%

CCSCCC(C)n1c(C)c(C(=O)c2ccccc2)c2ccccc21 (centres unmarked) [(409), 3-Benzoyl-1-(4-ethylthio-2-butyl)-2-methylindole]
inhibition at 10 mg/kg [3, 9]: 100%
inhibition at 10 mg/kg [3, 10]: 48.8%
IC50 [2]: 0.25 µg/mL (≈ 0.711 µM)
inhibition at 10 mg/kg [4, 11]: 100%
inhibition at 10 mg/kg [4, 12]: 100%

COc1ccc2c(c1)c(C(=O)c1ccccc1)c(C)n2C(C)CO (centres unmarked) [(116), 3-benzoyl-1-(1-hydroxy-2-propyl)-5-methoxy-2-methylindole]
inhibition at 10 mg/kg [3, 9]: 100%
inhibition at 10 mg/kg [3, 10]: 0.7%
IC50 [2]: 0.5 µg/mL (≈ 1.55 µM)
inhibition at 10 mg/kg [4, 11]: 100%
inhibition at 10 mg/kg [4, 12]: 0%

COCCC(C)n1c(C)c(C(=O)c2ccccc2)c2ccccc21 (centres unmarked) [(306), 3-Benzoyl-1-(4-methoxy-2-butyl)-2-methylindole]
inhibition at 10 mg/kg [3, 9]: 100%
inhibition at 10 mg/kg [3, 10]: 100%
IC50 [2]: 0.25 µg/mL (≈ 0.778 µM)
inhibition at 10 mg/kg [4, 11]: 100%
inhibition at 10 mg/kg [4, 12]: 100%

CCCCC(C)n1c(C)c(C(=O)c2ccccc2)c2ccccc21 (centres unmarked) [(705), 3-Benzoyl-1-(2-hexyl)-2-methylindole]
Incidence [1, 6]: 0%
Ulcer Index (mm ± S.E.) [1, 6]: 0 mm

CC(C)c1[nH]c2ccccc2c1C(=O)c1cccnc1 [drawing 4, reference compound]
action of inhibiting platelet aggregation [5]: has an action of inhibiting platelet aggregation
tendency to induce ulcer formation ([1]; general statement on investigations of the present inventors, test not specified): unnegligible tendency to induce ulcer formation

CCC(COC)n1c(C)c(C(=O)c2ccccc2)c2ccccc21 (centres unmarked) [(311), 3-Benzoyl-1-(1-methoxy-2-butyl)-2-methylindole]
inhibition at 10 mg/kg [3, 9]: 68.8%
inhibition at 10 mg/kg [3, 10]: 100%
IC50 [2]: 0.25 µg/mL (≈ 0.778 µM)
inhibition at 10 mg/kg [4, 11]: 100%
inhibition at 10 mg/kg [4, 12]: 81.1%

Cc1c(C(=O)c2ccccc2)c2ccccc2n1C(C)CSc1ccccc1 (centres unmarked) [(401), 3-Benzoyl-2-methyl-1-(1-phenylthio-2-propyl)-indole]
inhibition at 10 mg/kg [3, 9]: 100%
inhibition at 10 mg/kg [3, 10]: 100%
IC50 [2]: 0.25 µg/mL (≈ 0.648 µM)
inhibition at 10 mg/kg [4, 11]: 100%
inhibition at 10 mg/kg [4, 12]: 100%

CCC(COC(C)=O)n1c(C)c(C(=O)c2ccccc2)c2ccccc21 (centres unmarked) [(205), 1-(1-acetoxy-2-butyl)-3-benzoyl-2-methylindole]
inhibition at 10 mg/kg [3, 9]: 100%
inhibition at 10 mg/kg [3, 10]: 85.3%
IC50 [2]: 0.1 µg/mL (≈ 0.286 µM)
inhibition at 10 mg/kg [4, 11]: 100%
inhibition at 10 mg/kg [4, 12]: 93.8%

Cc1c(C(=O)c2ccccc2)c2ccccc2n1C(C)CSc1ccccn1 (centres unmarked) [(405), 3-Benzoyl-2 methyl-1-[1-(2-pyridylthio)-2-propyl]indole]
inhibition at 10 mg/kg [3, 9]: 100%
inhibition at 10 mg/kg [3, 10]: 100%
IC50 [2]: 0.5 µg/mL (≈ 1.29 µM)
inhibition at 10 mg/kg [4, 11]: 100%
inhibition at 10 mg/kg [4, 12]: 100%
